# In patent US7855166B2, “Sulfonylamino(thio)carbonyl compounds” (Bayer Cropscience GmbH, priority 2005, dated 2010):
# Key:
# [1] = tested on: weed plants such as Sinapis alba, Echinochloa crus-galli, Lolium multiflorum, Chrysanthemum segetum, Setaria viridis, Abutilon theophrasti, Amaranthus …; experiment: Post-emergence effect on weeds (greenhouse pot test, visual scoring); format: in vivo; conditions: applied post-emergence (three-leaf stage) at a rate of 0.3 kg or less of active substance per hectare; scored after about 3 to 4 weeks in comparison to untreated controls
# [2] = tested on: weed plants such as Sinapis alba, Chrysanthemum segetum, Avena sativa, Stellaria media, Echinochloa crus-galli, Lolium multiflorum, Setaria viridis, Abutilon …; experiment: Pre-emergence effect on weeds (greenhouse pot test, visual scoring); format: in vivo; conditions: applied pre-emergence at a rate of 0.3 kg or less of active substance per hectare; scored after 3 to 4 weeks in comparison to untreated controls
SMILES,herbicidal action against weed plants (effect scored visually) [1],herbicidal action against weed plants (visual scoring of plant damage or emergence damage) [2]
CCCOc1cccc(I)c1S(=O)(=O)NC(=O)n1nc(OC)n(C2CC2)c1=O [Compound 1.238],very good herbicidal action,very good herbidical action
COc1nn(C(=O)NS(=O)(=O)c2ccc(C(F)(F)F)cc2I)c(=O)n1C [Compound 1.893],very good herbicidal action,very good herbidical action
CCOc1nn(C(=O)NS(=O)(=O)c2c(C)cccc2I)c(=O)n1C [Compound 1.038],very good herbicidal action,very good herbidical action
CCCc1ccc(S(=O)(=O)NC(=O)n2nc(OCC)n(C3CC3)c2=O)c(I)c1 [Compound 1.881],very good herbicidal action,very good herbidical action
COc1nn(C(=O)NS(=O)(=O)c2c(I)cccc2OCC(F)F)c(=O)n1C [Compound 1.501],very good herbicidal action,very good herbidical action
CCOc1nn(C(=O)NS(=O)(=O)c2c(I)cccc2OC(C)C)c(=O)n1C1CC1 [Compound 1.261],very good herbicidal action,very good herbidical action
COc1nn(C(=O)NS(=O)(=O)c2c(I)cccc2C(F)(F)F)c(=O)n1C1CC1 [Compound 1.140],very good herbicidal action,very good herbidical action
CCCOc1nn(C(=O)NS(=O)(=O)c2cccc(Cl)c2I)c(=O)n1C [Compound 1.830],very good herbicidal action,very good herbidical action
CCCOc1nn(C(=O)NS(=O)(=O)c2ccc(Cl)cc2I)c(=O)n1C [Compound 1.871],very good herbicidal action,very good herbidical action
CCC(C)Oc1cccc(I)c1S(=O)(=O)NC(=O)n1nc(OC)n(C)c1=O (stereo not shown) [Compound 1.281],very good herbicidal action,very good herbidical action
CCOc1nn(C(=O)NS(=O)(=O)c2c(I)cccc2OC)c(=O)n1C [Compound 1.194],very good herbicidal action,very good herbidical action
COc1nn(C(=O)NS(=O)(=O)c2c(I)cccc2OCC(F)(F)F)c(=O)n1C [Compound 1.481],very good herbicidal action,very good herbidical action
Cc1cc(I)c(S(=O)(=O)NC(=O)n2nc(OC(C)C)n(C)c2=O)cc1C [Compound 1.865],very good herbicidal action,very good herbidical action
CSc1cccc(I)c1S(=O)(=O)NC(=O)n1nc(OC(C)C)n(C)c1=O [Compound 1.582],very good herbicidal action,very good herbidical action
CCOc1nn(C(=O)NS(=O)(=O)c2c(I)cccc2OS(C)(=O)=O)c(=O)n1C1CC1 [Compound 1.717],very good herbicidal action,very good herbidical action
CCOc1nn(C(=O)NS(=O)(=O)c2ccc(C(F)(F)F)cc2I)c(=O)n1C [Compound 1.890],very good herbicidal action,very good herbidical action
CCOc1nn(C(=O)NS(=O)(=O)c2c(I)cccc2OC(C)C(F)(F)F)c(=O)n1C (stereo not shown) [Compound 1.525],very good herbicidal action,very good herbidical action
CCOc1nn(C(=O)NS(=O)(=O)c2ccccc2I)c(=O)n1C1CC1 [Compound 1.011],very good herbicidal action,very good herbidical action
CCOc1nn(C(=O)NS(=O)(=O)c2cccc(Cl)c2I)c(=O)n1C [Compound 1.829],very good herbicidal action,very good herbidical action
COc1nn(C(=O)NS(=O)(=O)c2cc(C)c(C)cc2I)c(=O)n1C [Compound 1.862],very good herbicidal action,very good herbidical action
COc1nn(C(=O)NS(=O)(=O)c2c(I)cccc2OC(F)F)c(=O)n1C1CC1 [Compound 1.467],very good herbicidal action,very good herbidical action
CCOc1nn(C(=O)NS(=O)(=O)c2c(I)cccc2OCC(F)F)c(=O)n1C [Compound 1.504],very good herbicidal action,very good herbidical action
CCCCc1ccc(S(=O)(=O)NC(=O)n2nc(OCC)n(C)c2=O)c(I)c1 [Compound 1.883],very good herbicidal action,very good herbidical action
COc1nn(C(=O)NS(=O)(=O)c2c(I)cccc2OCC(F)(F)C(F)(F)F)c(=O)n1C1CC1 [Compound 1.552],very good herbicidal action,very good herbidical action
CCSc1nn(C(=O)NS(=O)(=O)c2c(I)cccc2OC)c(=O)n1C [Compound 1.197],very good herbicidal action,very good herbidical action
COc1nn(C(=O)NS(=O)(=O)c2c(I)cccc2OCC(F)(F)F)c(=O)n1C1CC1 [Compound 1.488],very good herbicidal action,very good herbidical action
